{
  "source": "ChEMBL document CHEMBL3507680",
  "about": "“University of Dundee, Gates Library screen for HepG2 cell viability”",
  "data": [
    {"assay": "Human HepG2 cell viability assay in 384 well format", "type": "toxicity, cell-based", "set-up": "dose 125 nL, time 70.5 hour; concentration not given beside the values", "details": "HepG2 cells, read-out: Inhibition", "units": {"cytotoxicity at 70.5 h": "%"}, "values": [
      {"smiles": "Cc1nc(CC(=O)NCCN2CCC(c3ccccc3C)C2)cs1", "note": "(stereo unspecified)", "cytotoxicity at 70.5 h": -8.35},
      {"smiles": "Cc1cc(C)cc(CN2CCN(C(=O)COCC3CCCO3)CC2=O)c1", "note": "(stereo unspecified)", "cytotoxicity at 70.5 h": -5.03},
      {"smiles": "Cc1ccccc1CN(C)C(=O)Cn1nc(-c2ccc(F)cc2)oc1=O", "cytotoxicity at 70.5 h": 29.6},
      {"smiles": "CCOCC1CN(S(C)(=O)=O)Cc2ncn(CC3CC3)c21", "note": "(stereo unspecified)", "cytotoxicity at 70.5 h": 3.76},
      {"smiles": "O=C(COc1ccccc1)N1C[C@@H](O)[C@H](N2CCCC2)C1", "cytotoxicity at 70.5 h": -12.1},
      {"smiles": "CNC(=O)CN(C(=O)c1cc(C(C)C)no1)c1cccc(F)c1", "cytotoxicity at 70.5 h": 27.9},
      {"smiles": "Cc1cnn(CCCNC2Cc3ccccc3C2)c1", "cytotoxicity at 70.5 h": 9.93},
      {"smiles": "CCc1ccc(CN2CCC3(CC2)CC(N2CCN(C)CC2)CO3)cc1", "note": "(stereo unspecified)", "cytotoxicity at 70.5 h": 7.28},
      {"smiles": "Cc1c(CN(C)c2cc(C3CCCNC3)ncn2)[nH]c2ccccc12", "note": "(stereo unspecified)", "cytotoxicity at 70.5 h": -14.2},
      {"smiles": "Cn1cc(CN2CCn3cc(CNC(=O)c4cccn4C)nc3C2)cn1", "cytotoxicity at 70.5 h": -2.17},
      {"smiles": "Cn1cc(N2CCCC(SCc3ccco3)C2=O)cn1", "note": "(stereo unspecified)", "cytotoxicity at 70.5 h": 14.8},
      {"smiles": "O=C(c1ccc(F)cc1)N1CCN2C[C@H](OCc3ccccn3)C[C@H]2C1", "cytotoxicity at 70.5 h": -6.75},
      {"smiles": "CC(C)(C)C(=O)NCCC(=O)Nc1cc(C#N)cn1C(C)(C)C", "cytotoxicity at 70.5 h": -4.11},
      {"smiles": "c1ccc(CCCN2CCN(CCn3cncn3)CC2)cc1", "cytotoxicity at 70.5 h": -3.65},
      {"smiles": "O=C(NCC(O)c1ccc(F)cc1F)c1ccccc1F", "note": "(stereo unspecified)", "cytotoxicity at 70.5 h": -12.6},
      {"smiles": "O=C(NCc1nncn1C1CC1)C1(c2ccc(F)cc2)CCOCC1", "cytotoxicity at 70.5 h": 16.9},
      {"smiles": "CSc1ccc(C(C(=O)O)N2CCOCC2)cc1", "note": "(stereo unspecified)", "cytotoxicity at 70.5 h": -11.2},
      {"smiles": "CN(C)CCOc1ccccc1N1CCN(C(=O)C(C)(C)C#N)CC1", "cytotoxicity at 70.5 h": -0.199},
      {"smiles": "CS(=O)(=O)NCc1noc2c1CN(C(=O)c1ccsc1)CC2", "cytotoxicity at 70.5 h": -7.43},
      {"smiles": "COc1ccccc1CCN(C)C(C)c1nc(-c2cccnc2)no1", "note": "(stereo unspecified)", "cytotoxicity at 70.5 h": 21.2},
      {"smiles": "Cc1nn(C)cc1S(=O)(=O)NCC(c1ccccc1)N1CCCCCC1", "note": "(stereo unspecified)", "cytotoxicity at 70.5 h": 17.9},
      {"smiles": "CCN1CCCC(O)(CN(C)Cc2c(C)nn(C)c2C)C1", "note": "(stereo unspecified)", "cytotoxicity at 70.5 h": 2.33},
      {"smiles": "O=C(C1CCCCO1)N1CCc2ncnc(NCCO)c2CC1", "note": "(stereo unspecified)", "cytotoxicity at 70.5 h": -2.71},
      {"smiles": "CC(CC#N)n1ccc(C(F)(F)F)n1", "note": "(stereo unspecified)", "cytotoxicity at 70.5 h": -0.316},
      {"smiles": "CN(Cc1ccco1)C[C@H]1OC[C@@H]2CCN(Cc3nccs3)C[C@@H]21", "cytotoxicity at 70.5 h": -10.1},
      {"smiles": "CC(C)N1CCCC(C(=O)NCc2noc(Cc3ccccc3)n2)C1", "note": "(stereo unspecified)", "cytotoxicity at 70.5 h": 8.23},
      {"smiles": "Cc1cc(CNC2CCCN(c3cccnn3)C2)no1", "note": "(stereo unspecified)", "cytotoxicity at 70.5 h": 5.47},
      {"smiles": "CN(CC(N)=O)C(=O)c1cc(Cl)c(Cl)n1C", "cytotoxicity at 70.5 h": -5.05},
      {"smiles": "O=C(c1ccsc1)N1CCO[C@@H]2CN(Cc3nccs3)C[C@@H]2C1", "cytotoxicity at 70.5 h": -3.17},
      {"smiles": "O=C(CCN1CCc2ccccc21)N1C[C@@H](O)[C@H](N2CCOCC2)C1", "cytotoxicity at 70.5 h": -3},
      {"smiles": "Cc1cc2c(c(-c3c[nH]c(C)n3)c1)OC(CN)C2", "note": "(stereo unspecified)", "cytotoxicity at 70.5 h": 2.12},
      {"smiles": "Cc1ccc(C(=O)NC2CCN(Cc3noc(CC(C)C)n3)CC2)s1", "cytotoxicity at 70.5 h": 7.31},
      {"smiles": "COc1ccc(C2SC(C)=Nc3c2c(=O)[nH]n3C2CCCCC2)cc1O", "note": "(stereo unspecified)", "cytotoxicity at 70.5 h": 2.14},
      {"smiles": "COc1ccc(-c2csc(N)c2C#N)cc1", "cytotoxicity at 70.5 h": -24.3},
      {"smiles": "COCC1CCN(S(=O)(=O)c2ccc(C(=O)NCC(F)F)cc2)C1", "note": "(stereo unspecified)", "cytotoxicity at 70.5 h": 9.26},
      {"smiles": "CNC(=O)CS(=O)(=O)Cc1coc(-c2cccc(F)c2)n1", "cytotoxicity at 70.5 h": -8.64},
      {"smiles": "Cc1ccc(C(=O)NCC(O)c2cccc(F)c2)c(=O)[nH]1", "note": "(stereo unspecified)", "cytotoxicity at 70.5 h": -0.0981},
      {"smiles": "COc1ccc(F)c(CN2CCCC(O)(CNCc3ncc[nH]3)C2=O)c1", "note": "(stereo unspecified)", "cytotoxicity at 70.5 h": -5.99},
      {"smiles": "O=C(c1n[nH]c2c1CCC2)N1CCCC1c1nc(-c2ccccn2)no1", "note": "(stereo unspecified)", "cytotoxicity at 70.5 h": -3.03},
      {"smiles": "CC(=O)N1CC[C@H]2CC(=O)N(C3CC3)CC[C@H]2C1", "cytotoxicity at 70.5 h": 14.2},
      {"smiles": "O=C(NCCCN1CCOCC1)c1cc(-c2ccco2)[nH]n1", "cytotoxicity at 70.5 h": -11.6},
      {"smiles": "CS(=O)(=O)Nc1ccn(Cc2cccc(F)c2)n1", "cytotoxicity at 70.5 h": -6.83},
      {"smiles": "CN(CCc1ccncc1)Cc1c(C2CCCC2)[nH]c2ncccc12", "cytotoxicity at 70.5 h": -1.56},
      {"smiles": "CC(C)NC(=O)N1CCCCC1c1nnc2n1CCNC2", "note": "(stereo unspecified)", "cytotoxicity at 70.5 h": 20.4},
      {"smiles": "CCOCCCn1c(NC(=O)c2cc(C)no2)nc2ccccc21", "cytotoxicity at 70.5 h": 2.27},
      {"smiles": "CN1C[C@@H]2CN(C(=O)C3CCOC3)C[C@@H]2C1=O", "note": "(stereo partly specified)", "cytotoxicity at 70.5 h": 9.81},
      {"smiles": "CCc1ncncc1C(=O)NCCN1CCC(C)CC1", "cytotoxicity at 70.5 h": -4.63},
      {"smiles": "CCN(CC)C(=O)CNC(=O)N1CCC(c2ccccc2)C1", "note": "(stereo unspecified)", "cytotoxicity at 70.5 h": -6.54},
      {"smiles": "O=C(c1ccc[nH]1)N1CCCn2c(nnc2Cn2cccn2)C1", "cytotoxicity at 70.5 h": -9.08},
      {"smiles": "CC(C)CCc1nc(CN2CCOC(Cn3cncn3)C2)cs1", "note": "(stereo unspecified)", "cytotoxicity at 70.5 h": -2.95},
      {"smiles": "Cc1ccnc(NC(=O)c2ccc(Br)o2)c1", "cytotoxicity at 70.5 h": -4.47},
      {"smiles": "O=S(=O)(C1CC1)N1CCC2(CC1)COC(COc1cccnc1)C2", "note": "(stereo unspecified)", "cytotoxicity at 70.5 h": -10.2},
      {"smiles": "COC(=O)c1cccc2nc([C@H]3CCN(C4CCN(C)CC4)C3)oc12", "cytotoxicity at 70.5 h": -2.72},
      {"smiles": "COc1cccc(CC(C)NC(=O)NC(C)C)c1", "note": "(stereo unspecified)", "cytotoxicity at 70.5 h": -2.35},
      {"smiles": "Cc1ncsc1C(=O)N1CCN(Cc2ccccc2)CC1C", "note": "(stereo unspecified)", "cytotoxicity at 70.5 h": 2.52},
      {"smiles": "Cc1ccc(C(=O)Nc2ccc(N3CCC(O)CC3)c(C#N)c2)s1", "cytotoxicity at 70.5 h": 29.7},
      {"smiles": "CN(C)C(CNCc1nc(-c2ccsc2)no1)c1ccsc1", "note": "(stereo unspecified)", "cytotoxicity at 70.5 h": 4.31},
      {"smiles": "CCOCCNc1nc(C2CCCC2)nc2c1cnn2C", "cytotoxicity at 70.5 h": 0.172},
      {"smiles": "CCN(CC)C(=O)[C@@H]1C[C@@H](n2cc(-c3cccc(OC)c3)nn2)CN1", "cytotoxicity at 70.5 h": -15.1},
      {"smiles": "O=C(c1ccc(-n2ccnc2)nc1)N1CCN2CCCCC2C1", "note": "(stereo unspecified)", "cytotoxicity at 70.5 h": -10.4},
      {"smiles": "COCCN(C)c1nc(-c2ccncc2)nc2c1CCN(C(C)=O)C2", "cytotoxicity at 70.5 h": -7.41},
      {"smiles": "O=C(O)c1cccc(CN2CCC(c3ccnc4ccnn34)CC2)c1", "cytotoxicity at 70.5 h": -8.88},
      {"smiles": "CCc1n[nH]c(C2CN(Cc3nnc(C4CC4)n3C)CCO2)n1", "note": "(stereo unspecified)", "cytotoxicity at 70.5 h": 27.9},
      {"smiles": "CCc1cccc(NC(=O)CNc2ccccc2OCCC(=O)OC)c1", "cytotoxicity at 70.5 h": -0.0313},
      {"smiles": "c1ccc(N2CCC3(COCCN(Cc4cccs4)C3)C2)nc1", "note": "(stereo unspecified)", "cytotoxicity at 70.5 h": -4.82},
      {"smiles": "O=C(C1CCCN(C2CCOCC2)C1)N1Cc2ccccc2C1", "note": "(stereo unspecified)", "cytotoxicity at 70.5 h": 13},
      {"smiles": "c1ccc2c(c1)CCC21CN(CCc2ccncc2)CCO1", "note": "(stereo unspecified)", "cytotoxicity at 70.5 h": -4.57},
      {"smiles": "Nc1ncc(C(=O)N2CCC3(CCCO3)CC2)c(-c2ccccc2)n1", "cytotoxicity at 70.5 h": -2.3},
      {"smiles": "O=C([C@@H]1C[C@@H]2CCN(C3CCOCC3)C[C@H]2O1)N1CCOCC1", "cytotoxicity at 70.5 h": -0.695},
      {"smiles": "Cn1ccc(CN2CCC(CCc3ccc(O)cc3)CC2)cc1=O", "cytotoxicity at 70.5 h": -9.59},
      {"smiles": "COc1ccc(C(=O)C2CCCN(c3cc(C#N)ccn3)C2)cc1OC", "note": "(stereo unspecified)", "cytotoxicity at 70.5 h": -5.09},
      {"smiles": "CC(=O)c1ccc(C(=O)NCCCOC(C)c2ccccc2)s1", "note": "(stereo unspecified)", "cytotoxicity at 70.5 h": 1.1},
      {"smiles": "CCc1noc(CN(CC)Cc2cc3cc(C)ccc3[nH]c2=O)n1", "cytotoxicity at 70.5 h": -10.7},
      {"smiles": "Cc1cccnc1NC(=O)c1ccc(F)c(S(=O)(=O)N2CCC2)c1", "cytotoxicity at 70.5 h": -19.3},
      {"smiles": "Cn1cnc2c1C(C(=O)N1CCOCC1)N(C(=O)c1ccccc1)CC2", "note": "(stereo unspecified)", "cytotoxicity at 70.5 h": -4.08},
      {"smiles": "COc1ccccc1CC1CCN(C(=O)CCN2CCOC2=O)CC1", "cytotoxicity at 70.5 h": 2.48},
      {"smiles": "CN(C)[C@@H]1CCN(c2ncccn2)[C@H]1Cc1cccnc1", "cytotoxicity at 70.5 h": -3.76},
      {"smiles": "Cc1ccsc1C(=O)N1CC2CC1(C(=O)NCc1ccco1)C2", "cytotoxicity at 70.5 h": 13.9},
      {"smiles": "CCOc1cccc(C2CC(=O)NCc3nc(N(C)C)sc32)c1", "note": "(stereo unspecified)", "cytotoxicity at 70.5 h": -5.3},
      {"smiles": "CC(C)COC(C)C(=O)N1CCCCCC1", "note": "(stereo unspecified)", "cytotoxicity at 70.5 h": -8.79},
      {"smiles": "CCCn1[nH]cc/c1=N\\C(=O)CN1CCOC(Cn2cc(C)cn2)C1", "note": "(stereo unspecified)", "cytotoxicity at 70.5 h": -14.6}
    ]}
  ]
}
